Test results published in patent US11970731B2, “Enhancement of nucleic acid polymerization by aromatic compounds” (priority 2018, dated 2024).

Experiments:
[1] = target: T1, C4760 DNA polymerase (a variant of DPO4) (Saccharolobus solfataricus, UniProt Q97W02, A155G/A42V/D156R/D292Y/D294N/E291S/E324K/E325K/E327K/E63R/E79L/G187P/G299W/I153V/I189F/I248T/I295S/K152A/K317Q/K321Q/K56Y/K78D/L293W/M76W/N188Y/P184Q/Q82W/Q83G/R300S/S297Y/S86E/T290K/T301W/V289W/V296Q); assay: Primer extension assays using a 411mer amplicon template; format: biochemical, Sulfolobus solfataricus; details: comparator compound 14 (lane 1)
T1 construct: made in house
Experimental: PEM activity of compound 15 was tested in primer extension assays using a 411mer amplicon template. Primer extension reactions included the following reagents: 50 mM TrisCl, 200 mM NH4OAc, 20% PEG8K, 5% NMS, 3 nmol PP-60.20, 2 mM MnCl2, 2 μg Kod single-strand binding protein (SSB), 1 M urea, 250 pmol each XNTP, 1 pmol template, 1 pmol oligonucleotide primer, 1.2 μg purified recombinant C4760 DNA polymerase (a variant of DPO4, see SEQ ID NO:2), and 2 (lane 2) or 3 (lane 3) mM PEM. 10 μL primer extension reactions were run for 20 minutes at 37° C. and reaction products were analyzed by gel electrophoresis. A representative gel showing primer extension products is presented in FIG. 12 (the position of a 277mer is indicated by the arrow). […] Remarkably, the polymerase is completely dependent upon the addition of PEM to the reaction in order to be capable of synthesizing these lengthy Xpandomer products. Even longer extension products may be obtained by optimizing various reaction parameters, e.g., extension time and/or concentrations of various additives.
PEM activity of compound 19, was tested in primer extension assays using the 411 mer amplicon template. […] 10 μL primer extension reactions were run for 30 minutes at 37° C. and reaction products were analyzed by gel electrophoresis. […]

DNA polymerase [2] = assay: Screen of PEMs for enhancement of XNTP polymerization (primer extension, gel electrophoresis); format: biochemical; details: FIG. 4 gel; 45 mer template; without PEM additive up to only around 14 XNTPs
Experimental: A representative primer extension reaction may include the following reagents: 2 pmol primer, 2.2 pmol 45 mer oligonucleotide template, 50 pmol of each XNTP (XATP, XCTP, XGTP, and XTTP), 50 mM Tris HCl, pH 6.79, 200 mM NaCl, 20% PEG, 5% NMS, 0.5 nmol polyphosphate 60.19, 0.3 mM MnCl2, and 0.6 μg of purified recombinant DNA polymerase protein. Reactions may be run for 1 hr at 23° C. Reaction products (i.e., constrained Xpandomers) are treated to cleave the phosphoramidate bonds, thereby generating linearized Xpandomers. Reaction products may be analyzed using gel electrophoresis on 4-12% acrylamide gels to resolve and visualize Xpandomer products of different lengths. For the PEM screen described above, PEMs were typically tested in the micro to millimolar range.
Again, this PEM activity is specific for compound 2, as other unrelated aromatic compounds had no effect (lanes 2-7).

DNA polymerase [3] = assay: Sequencing by Expansion (SBX) of primer extension products, nanopore sequence reads aligned to template; format: biochemical
Experimental: To investigate the accuracy of PEM-dependent enhancement of XNTP polymerization, primer extension products were sequenced using the SBX protocol. Briefly, the constrained Xpandomer products of XNTP polymerization are cleaved to generate linearized Xpandomers. This is accomplished by first quenching the extension reaction with a solution containing 100 mM EDTA, 2 mM THPTA, and 2% Tween-20. Then the sample is subjected to amine modification with a solution of 1 M NaHCO3 and 1 M succinic anhydride in DMF. Cleavage of the phosphoramidate bonds is carried out with 37% HCl and linearized Xpandomers are purified with QIAquick columns (QIAGEN, Inc.).
For sequencing, protein nanopores are prepared by inserting α-hemolysin into a DPhPE/hexadecane bilayer member in buffer B1, containing 2 M NH4Cl and 100 mM HEPES, pH 7.4. The cis well is perfused with buffer B2, containing 0.4 M NH4Cl, 0.6 M GuCl, and 100 mM HEPES, pH 7.4. The Xpandomer sample is heated to 70° C. for 2 minutes, cooled completely, then a 2 μL sample is added to the cis well. A voltage pulse of 90 mV/390 mV/10 μs is then applied and data is acquired via Labview acquisition software.
Sequence data is analyzed by histogram display of the population of sequence reads from a single SBX reaction. […] Representative histograms of SBX sequencing of a 45mer template are presented in FIG. 6A (no additive control) and FIG. 6B (SBX in the presence of PEM compound 1).

[4] = target: T2, C4552 (variant of DPO4 DNA polymerase) (Saccharolobus solfataricus, UniProt Q97W02, A155G/A42V/D156R/D292Y/D294N/E291S/E324K/E325K/E327K/E79L/G187P/G299W/I153V/I189F/I248T/I295S/K152A/K317Q/K321Q/K56Y/K78D/L293W/M76W/N188Y/P184Q/Q82W/Q83G/R300S/S297Y/S86E/T290K/T301W/V289W/V296Q); assay: XNTP polymerization reactions on longer templates (88, 127, 227, 277 nucleotides); format: biochemical, Sulfolobus solfataricus; details: 1 mM compound; templates of 88, 127, 227 and 277 nucleotides; 3 or 4 nmol PP-60.20; 1-2 hr at 23° C.; FIG. 8
T2 construct: made in house
Experimental: Following the success of accurately replicating templates of up to 80 nucleotides in length into Xpandomers, XNTP polymerization reactions were conducted using four longer templates, consisting of 88, 127, 227, and 277 nucleotides in length. A variant of DPO4 DNA polymerase, referred to as C4552 (SEQ ID NO:1), was used in these polymerization reactions and reaction conditions were optimized for C4552 activity in the presence of PEM compound 1. Other suitable DPO4 polymerase variants include, but are not limited to, those of SEQ ID NO:2, SEQ ID NO:3, SEQ ID NO:4, and SEQ ID NO:5. In addition to 1 mM compound 1, reaction additives included 1 mM urea and 2.75 μg single-strand binding protein (Eco SSB). Extension reactions were carried out with 0.85 pmol template, 0.5 pmol oligonucleotide primer, and 1 nmol each XNTP in a final volume of 10 μL. Reactions were run in buffer composed of 50 mM TrisCl, pH 8.84, 200 mM NH4OAc, and 20% PEG8K supplemented with 5% NMS, polyphosphate PP-60.20 in amounts of 3 or 4 nmol, and 2 mM MnCl2. 1.2 μg purified recombinant DNA polymerase protein was used in each extension reaction and reactions were run for 1-2 hr at 23° C. […] Lanes 1-5 and 6-10 represent identical extension reactions with the exception of the amount of PP-60.20 additive, which was 3 nmol in lanes 1-5 and 4 nmol in lanes 6-10.

C4552 DNA polymerase = target: T3, C4552 DNA polymerase (Saccharolobus solfataricus, UniProt Q97W02, A155G/A42V/D156R/D292Y/D294N/E291S/E324K/E325K/E327K/E79L/G187P/G299W/I153V/I189F/I248T/I295S/K152A/K317Q/K321Q/K56Y/K78D/L293W/M76W/N188Y/P184Q/Q82W/Q83G/R300S/S297Y/S86E/T290K/T301W/V289W/V296Q); assay: Primer extension assays using three 100mer templates derived from HIV1, 2 and 3 genomes; format: biochemical, Sulfolobus solfataricus; details: 0.5 mM PEM; HIV1, HIV2, HIV3 100mer templates; 30 minutes at 23° C.; FIG. 9
T3 construct: made in house
Experimental: PEM activity of compounds 9-11 was tested in primer extension assays using three 100mer templates, derived from the HIV1, 2, and 3 genomes. Primer extension reactions included the following reagents: 75 mM TrisCl, pH 8.44, 175 mM NH4OAc, 20% PEG8K, 5% NMS, 0.8 nmol PP-60.20, 0.6 mM MnCl2, 2.3 μg Tth single-strand binding protein (SSB), 0.5 M or 1 M urea, 200 pmol each XNTP, 1.1 pmol template, 1 pmol oligonucleotide primer, 1.2 μg purified recombinant C4552 DNA polymerase, and 0.5 mM PEM. 10 μL primer extension reactions were run for 30 minutes at 23° C. and reaction products were analyzed by gel electrophoresis.

T1 sequence (Q97W02 other isoform, or with tags, fused parts or gaps with the stated changes): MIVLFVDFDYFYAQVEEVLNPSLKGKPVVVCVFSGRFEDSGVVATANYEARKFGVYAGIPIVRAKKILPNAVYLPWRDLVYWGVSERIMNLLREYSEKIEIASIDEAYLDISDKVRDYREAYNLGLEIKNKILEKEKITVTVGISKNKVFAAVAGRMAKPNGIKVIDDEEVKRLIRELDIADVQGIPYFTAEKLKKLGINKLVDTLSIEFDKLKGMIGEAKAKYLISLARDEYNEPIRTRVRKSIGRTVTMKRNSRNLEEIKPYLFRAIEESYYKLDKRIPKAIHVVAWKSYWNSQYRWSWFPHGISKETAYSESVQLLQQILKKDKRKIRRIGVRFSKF
T3 sequence (Q97W02 other isoform, or with tags, fused parts or gaps with the stated changes): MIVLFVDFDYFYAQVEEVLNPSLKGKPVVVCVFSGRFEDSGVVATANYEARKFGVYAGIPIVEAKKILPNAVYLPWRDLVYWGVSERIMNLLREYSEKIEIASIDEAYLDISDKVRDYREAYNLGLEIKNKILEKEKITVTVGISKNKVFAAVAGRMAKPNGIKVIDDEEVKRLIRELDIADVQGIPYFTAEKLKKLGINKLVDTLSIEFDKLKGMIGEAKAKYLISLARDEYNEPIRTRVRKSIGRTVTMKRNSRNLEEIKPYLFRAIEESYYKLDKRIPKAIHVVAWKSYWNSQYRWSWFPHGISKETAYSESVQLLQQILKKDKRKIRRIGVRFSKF

NC(=O)c1cc(-c2cn(-c3ccc(C(=O)O)c(O)c3)nn2)nc(-c2cn(-c3ccc(C(=O)O)c(O)c3)nn2)c1 [Compound 19, 4,4′-((4-carbamoylpyridine-2,6-diyl)bis(1H-1,2,3-triazole-4,1-diyl))bis(2-hydroxybenzoic acid)]
PEM activity: polymerization of XNTPs into Xpandomer copies of the 411 mer template ([1]; 0.5, 1, or 1.5 mM PEM, 0.5 pmol template, 30 minutes at 37° C., FIG. 14): enables polymerization of XNTPs into lengthy Xpandomer copies of the 411 mer template, albeit in a manner less efficient than that of compound 14

CCOC(=O)c1cc(-c2cn(-c3ccc(O)c(C(=O)O)c3)nn2)nc(-c2cn(-c3ccc(O)c(C(=O)O)c3)nn2)c1 [Compound 15, 5,5′-((4-(ethoxycarbonyl)pyridine-2,6-diyl)bis(1H-1,2,3-triazole-4,1-diyl))bis(2-hydroxybenzoic acid)]
PEM activity: polymerization of XNTPs into Xpandomer copies of the 411 mer template ([1]; 2 or 3 mM PEM, 1 pmol template, 20 minutes at 37° C., FIG. 12): enables polymerization of XNTPs into lengthy Xpandomer copies of the 411 mer template in a manner comparable to that of compound 14

O=C(O)c1ccc(-n2cc(-c3cccc(-c4cn(-c5ccc(C(=O)O)c(O)c5)nn4)n3)nn2)cc1O [Compound 1, 4,4′-(pyridine-2,6-diylbis(1H-1,2,3-triazole-4,1-diyl))bis(2-hydroxybenzoic acid)]
DNA polymerase-mediated primer extension with XNTPs (length of extension products) (DNA polymerase [2]): enables the polymerase to synthesize considerably longer extension products | accuracy of SBX sequence reads (DNA polymerase [3]; 45mer template, FIG. 6B, without additive reads not accurate past around base 18): increased the accuracy of the sequence reads across the entire length of the 45 mer template | accuracy of SBX sequence reads (DNA polymerase [3]; 60 mer template, FIG. 7A): enabled accurate sequence reads completely to the end of each of these longer templates | accuracy of SBX sequence reads (DNA polymerase [3]; 80 mer template, FIG. 7B): enabled accurate sequence reads completely to the end of each of these longer templates | polymerization of XNTPs into Xpandomer copies of longer templates [4]: generate complete Xpandomer copies of each longer template | PEM activity: polymerization of XNTPs into Xpandomer copies of 100 mer templates (C4552 DNA polymerase): enables polymerization of XNTPs into full length Xpandomer copies of the three different 100 mer templates
